Measured values published in patent US9968579B2, “ATRA for modulating Pin1 activity and stability” (Beth Israel Deaconess Medical Center, Inc., priority 2014, dated 2018).
One block for each molecule: values may come before it.

Assays:
[1] = tested on: Pin1 acetylation; assay: Pin1 acetylation in cells (Flag IP, acetyl-lysine immunoblot); format: cell-based
Source text: FIG. 1 depicts HTS results for glucose starvation induced Pin1 deacetylation in cells 100. In order to perform glucose starvation induced Pin1 deacetylation in cells, cells were transfected with Flag-Pin1 and subjected to various stresses, followed by Flag IP before with immunoblotting acetyl-lysine (AcK) or Flag antibody. Glu-, glucose starvation; HS, heat shock; UV, UV radiation. […] Overexpression of p300-HA increased Pin1 acetylation in cells. Various histone acetyl transferases were co-transfected with Flag-Pin1 into cells, followed by assaying acetylated Pin1. p300 inhibitors, Garcinol (Gar) and Anacardic acid (AnAc), reversed p300-increased Pin1 acetylation.
To corroborate this notion, 2-deoxyglucose (2-DG), a glucose analog, was used to mimic glucose starvation (Wick et al., 1955). […] Protein acetylation may be catalytically modulated by a particular pair of histone acetyl transferase (HAT) and deacetylase (HDAC) (Yang and Seto, 2007). To identify the HAT and HDAC that modulates Pin1 acetylation, Flag-tagged Pin1 was expressed with several HATs including p300, CBP or GCN5 in cells, followed by coimmunoprecipitation (Co-IP) with anti-Flag antibody and immunoblotting with anti-acetyl lysine antibody.

[2] = target: T1, Pin1 PPIase domain (Homo sapiens, UniProt Q13526); assay: FP-HTS / FP assay, competition with pTide probe for Pin1 binding; conditions: for interaction with Pin1 in FP assay: 0.5 h or 24 h incubation with Pin1; for Pin1 binding among retinoids tested: FIG. 4F
T1 construct: Pin1 PPIase domain was used instead of its full-length protein
Source text: A FP-HTS screening for small molecule compounds that may compete with pTide for binding to dephosphorylated and thus activated Pin1 was developed. Pin1 PPIase domain was used instead of its full-length protein to ensure the identification of compounds that selectively target the catalytic site of monomeric Pin1. The HTS probe pTide was conjugated with FITC or TAMRA and assay conditions optimized to ensure that the probe only binds to the catalytic active site with certain essential residues, such as K63 and R69 (PDB: 2Q5A).
(§1) As observed in FIGS. 4B and 4C, 13cRA and its pairing compound ATRA include a carboxylic acid and a hydrophobic six-membered aromatic ring.
To examine whether the carboxylic acid in ATRA serves as an alternative of phosphate group that binds to Pin1, several structurally similar retinoids with substituted carboxylic or aromatic groups, as well as the new generation of retinoid drugs including Fenretinide and Bexarotene were tested for Pin1 binding.

[3] = target: T2, Pin1 (Homo sapiens, UniProt Q13526); assay: In vitro PPIase assay; conditions: dose-dependent
[4] = tested on: MDA-MB-231 cells expressing Q33K or E100D Pin1 mutant; assay: Xenograft of MDA-MB-231 cells expressing Q33K or E100D Pin1 mutant; design: species or system nude mice; conditions: mouse, in vivo
Description: (H-J) ATRA inhibited tumor growth of MDA-MB-231 cells in mice, even after over-expression of monomeric Q33K or E100D Pin1 mutant. Nude mice were injected with 2×10^6 MDA-MB-231 cells and treated with ATRA pellets at indicated dosages. Tumors were harvested 7 weeks later. Quantitative curve of tumor volumes developed by Q33K (I) or E100D (J)-expressing MDA-MB-231 in the nude mice (n=3).
It was examined whether ATRA is suitable for treating tumors driven by cancer-derived monomeric Pin1 mutants given that it induces degradation of monomeric Pin1. It is stably expressed WT, Q33K or E100D Flag-Pin1 in MDA-MB-231 cells, and then treated them with ATRA. […] Collectively, ATRA has potent anti-tumor activity against breast cancer driven by WT Pin1 or its cancer-derived monomeric mutants via ablating Pin1.

[5] = tested on: Pin1 and substrate oncogenes and tumor suppressors; assay: Protein levels of Pin1 and its substrates in breast cell lines; format: cell-based, human
Source text: (I, J) Either ATRA (I) or inducible Pin1 KD (J) shared the same ability to reduce protein levels of Pin1 and its substrate oncogenes including cyclin D1, HER2, ERα, Akt, NFkB/p65, c-Jun and PKM2 as well as to increase protein levels of Pin1 substrate tumor suppressors, Smad and SMRT, in breast cancer MDA-MB-231, SKBR3 and T47D cells, with ATRA having little effects on normal MCF10A cells. TNBC, triple negative breast cancer.
To further support that ATRA targets Pin1 in breast cancer, it was examined whether ATRA would affect protein levels of a selected set of oncogenes and tumor suppressors, whose protein stability is shown to be regulated by Pin1 in breast cancer. […] To further support that these effects of ATRA are due to Pin1 degradation, it was stably introduced tetracycline-inducible Pin1 KD into these cells. Inducible Pin1 KO produced the same effects on the oncogenes and tumor suppressors, as did ATRA (FIG. 6J). Taken together, ATRA selectively ablated activated Pin1 to inhibit many cancer-driving pathways simultaneously.

[6] = tested on: MDA-MB-231 cells; assay: MDA-MB-231 xenograft in nude mice; format: in vivo, female nude mice; conditions: intraperitoneally 3 times a week for 8 weeks
Description: (A, B) ATRA inhibited tumor growth of MDA-MB-231 cells in mice. Female nude mice were flank-inoculated with 2×10^6 MDA-MB-231 cells and, 1 week later, implanted with 5 or 10 mg 21 day slow-releasing ATRA pellets. Tumor sizes were measured weekly and tumor tissues were collected from the mice after 7 weeks (A). Curves of tumor volume were plotted after calculation with formula of L×W^2×0.52 (B) (n=3).
FIG. 7 illustrates study results 700 in which the slow-releasing ATRA inhibits human triple negative breast cancer tumor growth in mice. In the pilot experiments, female nude mice were subcutaneously injected with MDA-MB-231 cells into the flank, followed by administering ATRA or vehicle intraperitoneally 3 times a week for 8 weeks. […] This ATRA's modest anti-tumor activity could be due to its short half-life of less than 1 h in humans. Thus, slow-releasing ATRA pills to maintain its constant drug level in mice was used. Mice were again subcutaneously injected with MDA-MB-231 cells into the flank and implanted 1 week later with slow-releasing ATRA or placebo pills for 8 weeks. […] Tumor samples were then collected at the end and immunoblotted with antibodies against Pin1 and its target cyclin D1.

[7] = tested on: cyclin D1 promoter; assay: Cyclin D1 promoter activation by Pin1; format: cell-based; conditions: dose-dependent
Source text: FIG. 6 illustrates study results 600 in which ATRA may have anticancer activity in other cancer types. Breast cancer was used as model due to the substantial oncogenic role of Pin1 in vitro and in vivo. The first step was to test whether ATRA may reverse the oncogenic phenotypes induced by Pin1 overexpression, including induction of centrosome amplification, activation of the cyclin D1 promoter, and enhancement of foci formation.

[8] = tested on: APL cells isolated from hCG-PML-RARα transgenic mice
[9] = tested on: PML-RARα and Pin1 in NB4 cells; assay: PML-RARα and Pin1 protein levels in NB4 cells; format: cell-based, human
[10] = tested on: NB4 cells; assay: Cell growth of NB4 cells; format: cell-based, human; conditions: combination with 1.5 μM ATRA; superior to high dose ATRA
Source text: (K) Potentiated effects of ATRA with SIRT1 inhibitors, NAM or Splito, on cell growth of NB4.
Next, in a consideration to test the role of activated Pin1 monomer in APL, the anti-proliferative effect of ATRA in the presence of the SIRT1 inhibitors, NAM or Splito, to deplete the monomeric Pin1 reservoir was examined.

[11] = tested on: AU565 cells; assay: ATRA sensitivity of AU565 cells in combination with SIRT1 inhibitors; format: cell-based, human; conditions: ATRA-resistant AU565 cells
Source text: Moreover, SIRT1 KD cells were more sensitive to growth inhibition, and Pin1 degradation induced by ATRA. These findings support the notion that ATRA selectively targets the activated Pin1 monomer.

[12] = tested on: breast cancer cells; assay: Effect of pan-RARs inhibitor/activator on ATRA-induced Pin1 degradation and growth inhibition; format: cell-based, human
Source text: To examine whether the inhibitory effects of ATRA on breast cancer cell growth were related to RAR activation, Ro-415253 and AC-93253 were used. […] Thus, ATRA-mediated growth inhibition is likely via Pin1 degradation in breast cancer cells, as in APL cells.

[13] = target: Pin1 S71E mutant (Homo sapiens, UniProt Q13526, S71E); assay: Binding to phosphorylation-mimicking Pin1 S71E mutant
Source text: as §1
The levels of S71 phosphorylation in different cell lines were tightly correlated with ATRA's sensitivity. […] It has been previously shown that phosphorylation on S71 forms salt bridges with K63 and R69, which are the same two residues that coordinated for the binding to the carboxylic acid group of ATRA (FIG. 6H). Thus S71 phosphorylation by DAPK1 may regulate ATRA's sensitivity of cancer cells.

[14] = target: T2, Pin1; conditions: read-out: Kd (affinity for Pin1); cited from earlier work
[15] = tested on: cells; conditions: cited from earlier work

Molecule: O=CC[C@@H](O)[C@H](O)[C@H](O)CO [2-DG, 2-deoxyglucose]
Pin1 acetylation ([1]; mimic of glucose starvation): reduction in Pin1 acetylation in a time- or dose-dependent manner

rank as Pin1 inhibitor hit by Z score in FP-HTS ([2]; 8200 compound chemical libraries): No. 1 hit | inhibition of Pin1 PPIase activity [3]: completely inhibited
Molecule: CC1=C(/C=C/C(C)=C/C=C/C(C)=C\C(=O)O)C(C)(C)CCC1 [13cRA, 13-cis-retinoic acid]
interaction with Pin1 in FP assay [2]: interacted with Pin1 in a dose-dependent manner

Pin1 binding among retinoids tested [2]: most potent | Pin1 binding potency, ATRA versus 13cRA ([2]; after 0.5 h Pin1 incubation): more potent than 13cRA | Pin1 binding potency, ATRA versus 13cRA ([2]; after 24 h Pin1 incubation): the same potency
Molecule: CC1=C(/C=C/C(C)=C/C=C/C(C)=C/C(=O)O)C(C)(C)CCC1 [ATRA, all-trans-retinoic acid]
Pin1 mutants and cyclin D1 in tumors [4]: dose-dependently reduced both Q33K and E100D Pin1 mutants and cyclin D1 in tumors | inhibition of Q33K or E100D Pin1 mutant-promoted xenograft tumor growth [4]: dose-dependently and effectively inhibited | protein levels of Pin1 and oncogenic substrates (cyclin D1, HER2, ERα, Akt, NFkB/p65, c-Jun, PKM2) ([5]; T47D, SKBR3 or MDA-MB-231): dose-dependent protein reduction | protein levels of tumor suppressor substrates Smad2/3 or SMRT ([5]; T47D, SKBR3 or MDA-MB-231): protein induction | changes in Pin1, oncogenes or tumor suppressors ([5]; normal MCF10A cells): no appreciable changes | tumor size [6]: slightly smaller tumors than control mice | interaction with Pin1 in FP assay [2]: interacted with Pin1 in a dose-dependent manner | inhibition of Pin1 activation of the cyclin D1 promoter [7]: fully inhibited

Molecule: CCCCCCCCCCCCCCCc1cccc(O)c1C(=O)O [Anacardic acid]
effect on p300-increased Pin1 acetylation ([1]; p300 over-expressed): reversed

Pin1 binding among retinoids tested [2]: only marginal Pin1 interaction
Molecule: C=C(c1ccc(C(=O)O)cc1)c1cc2c(cc1C)C(C)(C)CCC2(C)C [Bexarotene]

condition of treated mice ([8]; mouse, in vivo): rather sick
Molecule: O=C(O[C@@H]1Cc2c(O)cc(O)cc2O[C@@H]1c1cc(O)c(O)c(O)c1)c1cc(O)c(O)c(O)c1 [EGCG]
PML-RARα in the bone marrow ([8]; after 20 days): dramatically reduced | potency in reducing PML-RARα and spleen size compared with ATRA ([8]; mouse, in vivo): less potent | spleen weights ([8]; versus enlarged spleens in placebo group): remained nearly at basal levels | PML-RARα degradation [9]: induced PML-RARα degradation in a dose-dependent manner | Pin1 degradation [9]: inhibited Pin1 without degrading it

Pin1 binding among retinoids tested [2]: only marginal Pin1 interaction
Molecule: CC1=C(/C=C/C(C)=C/C=C/C(C)=C/C(=O)Nc2ccc(O)cc2)C(C)(C)CCC1 [Fenretinide]

Molecule: NC(=O)c1cccnc1 [NAM]
effect on anticancer effects of low dose ATRA [10]: greatly potentiated | increase of ATRA sensitivity [11]: 2 orders of magnitude

Molecule: CCOC(=O)CN1C(=O)c2ccc3c4c(ccc(c24)C1=O)C(=O)N(CC(=O)OCC)C3=O [PiB]
PML-RARα degradation [9]: induced PML-RARα degradation in a dose-dependent manner | Pin1 degradation [9]: inhibited Pin1 without degrading it

Molecule: CCCCCCCOc1cc2c(cc1/C(C)=C/c1ccc(C(=O)O)cc1)C(C)(C)CCS2(=O)=O [Ro-415253]
effect on Pin1 degradation or cell growth inhibition induced by ATRA [12]: neither the pan-RARs inhibitor nor the pan-RARs activator had any obvious effects

Molecule: O=C1CCc2c(ccc3ccccc23)O1 [Splito]
effect on anticancer effects of low dose ATRA [10]: greatly potentiated | effect on ATRA sensitivity [11]: increase ATRA sensitivity

Pin1 binding among retinoids tested [2]: completely inactive
Molecule: CC1=C(/C=C/C(C)=C/C=C/C(C)=C/C=O)C(C)(C)CCC1 [retinal]

Pin1 binding among retinoids tested [2]: completely inactive
Molecule: CC1=C(/C=C/C(C)=C/C=C/C(C)=C/CO)C(C)(C)CCC1 [retinol]

Pin1 binding among retinoids tested [2]: completely inactive
Molecule: CC(=O)OC/C=C(C)/C=C/C=C(C)/C=C/C1=C(C)CCCC1(C)C [retinyl acetate]

interaction with Pin1 in FP assay [2]: negative control
Molecule: O=C(O)c1ccccc1O [salicylic acid]

binding to Pin1 S71E mutant [13]: unable to bind
Molecule: Bth-d-phos.Thr-Pip-Nal [pTide]
Kd [14]: 1.2 nM | ability to enter cells [15]: cannot enter cells
